Experimental data: patent US20070292403A1, “Methods of treating a neurological disorder with creatine monohydrate” (priority 2006, published 2007)
Like-named read-outs stand apart in the source and are kept apart here.

Assays:
[1] = tested on: subjects with Huntington's disease; experiment: Example 1: tolerability, safety and clinical (UHDRS) measures of creatine 8 g/day in Huntington's disease, randomized placebo-controlled; type: in vivo, human; design: Serum creatinine: unit: mg/dL; conditions: for Serious adverse events / Study withdrawal before week 24: monohydrate
Procedure: Study design. Sixty-four subjects were enrolled at four sites. Eligible subjects were randomized to 8 g/day of creatine monohydrate or placebo by computer-generated blocked randomization with site stratification. Treatment was administered as chewable wafers twice daily for 16 weeks. A medical monitor and independent safety committee reviewed clinical data monthly. Consent, study procedures, and case report forms were approved by the institutional review board at each site. Blood samples for analysis of serum biomarkers were obtained with consent from 30 age-appropriate individuals without neurological illnesses.
Eligibility criteria. Eligible subjects were 18 years of age and older with a diagnosis of Huntington's disease confirmed by genetic testing, a total functional capacity score of ≧5, and a caregiver to witness consent and monitor compliance. Exclusion criteria included previous creatine exposure within 30 days of baseline; underlying hematological, hepatic, or renal disease; screening white blood cell count <3,800/mm^3; creatinine >2.0 mg/dL or alanine aminotransferase greater than twice the upper normal limit; or unstable medical/psychiatric illness.
Study protocol. Subjects were screened within 25 days of randomization (baseline visit). Screening included assessment of eligibility criteria, medical history, physical examination, Unified Huntington's Disease Rating Scale (UHDRS), EKG, DNA analysis, complete blood count, chemistry panel, and urinalysis. Subjects were on study drug (creatine or placebo) for 16 weeks, followed by an 8-week washout. Study visits occurred at baseline, weeks 8, 16, and 24 with telephone contacts at weeks 1, 10 and 20. Physical examination was done at screening and week 16. UHDRS scores, vital signs, adverse event assessment, and safety laboratory tests were repeated at all visits. Blood was collected for serum creatine levels and serum 8-hydroxy-2′-deoxyguanosine (8OH2′dG), a measure of oxidative injury affecting DNA. The later was analyzed in the samples from two sites. Magnetic resonance spectroscopy (MRS; STEAM; TR/TE=6000/20 milliseconds) of frontal cortex (voxel size=56 cc) and occipital cortex (voxel size=18 cc) performed at one site was analyzed for this report. Subject compliance was assessed by wafer counts.
Statistical analysis. The primary outcome measure was tolerability. […] Within 27 subjects per group, there was a 94% power to detect an absolute difference of 50% or more between the placebo group and the active treatment group assuming a 15% dropout rate. In accordance with intent to treat, all randomized subjects were included in safety and tolerability analysis. Tolerability was assessed by comparing the proportion of treatment failures in creatine and placebo groups using χ^2 test with continuity correction. As the primary interest was in detecting intolerability in the active group, a one-sided test was used (significance=0.05). This was also applied to assess adverse events and laboratory abnormalities. The laboratory score changes from screening were analyzed by repeated-measures analysis of variance (ANOVA), and the differences between visits were analyzed by paired t test. Demographic and baseline variables were summarized for each group, and comparisons made using Fischer's exact test and continuous variables were compared using t test. Changes in UHDRS motor, cognitive, behavioral, and functional component subscores were measured at baseline and weeks 8, 16, and 24 and analyzed by mixed-model ANOVA.

[2] = tested on: symptomatic subjects with Huntington's disease; type: in vivo, human
Procedure: A two-phase open-label study was conducted to better determine an optimal dose of creatine symptomatic subjects with Huntington's disease. A dose-escalation study (10-40 grams per day) was conducted to determine the maximally tolerated dose (MTD) followed by a de-escalation phase to assess whether brain and serum levels of creatine might be maximal at doses lower than the MTD. Ten subjects were enrolled and followed prospectively for two weeks at each done level increasing in 5-gram increments during dose escalation that lasted 13 weeks. Assessments at each visit included UHDRS, EKG, vital signs, clinical safety and research labs. MRI spectroscopy was conducted prior to baseline at peak done (40 grams) and one month after de-escalation to either 30 or 15 grams daily. To determine an optimal dose, pharmacokinetic as well as clinical data were considered. Once the maximal dose was reached, subjects were assigned one of two lower doses previously taking (15 grams a day (n=5) or 30 grams a day (n=5)). Serum creatine was assessed at baseline, at the end of each 2-week dose escalation step and at the end of the de-escalation phase to assess the correspondence between serum and brain levels of creatine at steady state.
Subjects at the end of this study were given the option to continue a long-term study to evaluate the long-term safety and tolerability of high dosage of creatine. Subjects have been followed for nine months on creatine. […] Adverse events have been infrequent and mild to moderate in grade and 30 grams daily creatine has been well-tolerated for 9 months. Laboratory abnormalities have been mild. […] Thus long term administration of 30 grams daily of creatine appears to be safe and well-tolerated.

[3] = 8 g/day, n = 32, frequency, listed as creatine
[4] = adverse event frequency, 8 g/day, n = 32
[5] = De-escalation Baseline, 15 g/day, N 5
[6] = De-escalation Baseline, 30 g/day, N 5
[7] = Week 24 (Visit 4), 30 g/day, N 10

## CN(CC(=O)O)C(=N)N [Creatine, creatine monohydrate]
[1]; 8 g/day
  Laboratory abnormalities: mild reversible serum creatinine and alkaline phosphatase elevations
[1]; 8 g/day, chewable wafers twice daily, 16 weeks
  Tolerability: well tolerated
[1]; 8 g/day, n = 32
  All adverse events: mild, moderate and severe, (%): 86.9%
[1]; 8 g/day, n = 32, frequency
  All adverse events: mild, moderate and severe, no.: 26
  Serious adverse events: 3
  Study withdrawal before week 24: 2
[1]; [3]
  Serious adverse events: three
  Study withdrawal before week 24: three
[1]; 8 g/day, paired t test
  Body mass index and UHDRS subscores compared with baseline: did not change with treatment
[1]; [4]
  Apathy: 1
  Cough: 1
  Depression: 4
  Dizziness: 1
  Dysphagia: 1
  Fall: 3
  Hematuria: 1
  Increased movements: 1
  Irritability: 3
  Lethargy: 2
  Vomiting: 1
[1]; creatine group by week 8, from 0.88±0.19, p<0.01, elevated at week 16, baseline at washout, in mg/dL (unit assumed)
  Serum creatinine: 1.04±0.24
[2]; [5]
  Independence Score: 75.0 (8.7)
  Stroop Color Naming: 52.8 (22.9)
  Stroop Interference: 23.8 (13.1)
  Stroop Word Reading: 56.0 (24.3)
  Symbol Digit Modalities Test: 29.0 (10.6)
  Total Chorea Score: 5.5 (1.7)
  Total Functional Assessment: 10.6 (9.8)
  Total Functional Capacity: 8.8 (1.8)
  Verbal Fluency Test: 15.8 (16.0)
[2]; [6]
  Independence Score: 82.5 (14.4)
  Stroop Color Naming: 57.8 (24.2)
  Stroop Interference: 40.0 (19.6)
  Stroop Word Reading: 90.0 (24.2)
  Symbol Digit Modalities Test: 34.0 (20.5)
  Total Chorea Score: 7.8 (4.3)
  Total Functional Assessment: 15.8 (10.2)
  Total Functional Capacity: 9.8 (3.4)
  Verbal Fluency Test: 28.3 (15.8)
[2]; [7]
  Independence Score: 82.5 (8.9)
  Stroop Color Naming: 51.7 (21.37)
  Stroop Interference: 31.3 (15.23)
  Stroop Word Reading: 62.7 (24.11)
  Symbol Digit Modalities Test: 30.56 (12.63)
  Total Chorea Score: 7.0 (4.1)
  Total Functional Assessment: 19.6 (4.1)
  Total Functional Capacity: 8.7 (2.2)
  Verbal Fluency Test: 26.6 (17.67)
[2]; human, in vivo
  Serious adverse effects: no serious adverse effects
  Tolerability: well-tolerated
[2]; long-term follow-up, up to 9 months
  Clinical changes (UHDRS subscores): no significant clinical changes
